Experimental data from ChEMBL document CHEMBL5465560, “Selectivity Literature for EUbOPEN Chemogenomic Library” (2024).

What was measured:
[1] = biological target: T1, MAP kinase-activated protein kinase 5 (Homo sapiens) (UniProt Q8IW41); experiment: Selectivity interaction (KinomeScan (DiscoverX)) EUB0000229b MAPKAPK5; conditions: at 10 µM
T1 sequence (whole entry): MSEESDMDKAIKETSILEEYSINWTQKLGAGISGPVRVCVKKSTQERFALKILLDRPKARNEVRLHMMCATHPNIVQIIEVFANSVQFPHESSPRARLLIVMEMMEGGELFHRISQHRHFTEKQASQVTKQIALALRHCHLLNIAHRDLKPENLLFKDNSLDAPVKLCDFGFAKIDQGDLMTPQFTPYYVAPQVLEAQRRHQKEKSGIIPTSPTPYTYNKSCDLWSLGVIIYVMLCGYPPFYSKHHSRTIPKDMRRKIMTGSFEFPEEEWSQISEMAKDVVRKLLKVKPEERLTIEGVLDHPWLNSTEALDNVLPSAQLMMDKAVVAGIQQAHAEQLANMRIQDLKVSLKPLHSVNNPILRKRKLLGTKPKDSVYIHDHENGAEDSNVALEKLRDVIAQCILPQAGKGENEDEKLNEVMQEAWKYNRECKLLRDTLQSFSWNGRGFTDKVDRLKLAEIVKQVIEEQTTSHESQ

[2] = biological target: Tyrosine-protein kinase Fgr (Homo sapiens) (UniProt P09769); experiment: Selectivity interaction (Upstate Kinase Profiler service (Millipore)) EUB0000056c FGR; conditions: at 1 µM
Sequence of Tyrosine-protein kinase Fgr (Homo sapiens) (P09769 2-529 limits assumed): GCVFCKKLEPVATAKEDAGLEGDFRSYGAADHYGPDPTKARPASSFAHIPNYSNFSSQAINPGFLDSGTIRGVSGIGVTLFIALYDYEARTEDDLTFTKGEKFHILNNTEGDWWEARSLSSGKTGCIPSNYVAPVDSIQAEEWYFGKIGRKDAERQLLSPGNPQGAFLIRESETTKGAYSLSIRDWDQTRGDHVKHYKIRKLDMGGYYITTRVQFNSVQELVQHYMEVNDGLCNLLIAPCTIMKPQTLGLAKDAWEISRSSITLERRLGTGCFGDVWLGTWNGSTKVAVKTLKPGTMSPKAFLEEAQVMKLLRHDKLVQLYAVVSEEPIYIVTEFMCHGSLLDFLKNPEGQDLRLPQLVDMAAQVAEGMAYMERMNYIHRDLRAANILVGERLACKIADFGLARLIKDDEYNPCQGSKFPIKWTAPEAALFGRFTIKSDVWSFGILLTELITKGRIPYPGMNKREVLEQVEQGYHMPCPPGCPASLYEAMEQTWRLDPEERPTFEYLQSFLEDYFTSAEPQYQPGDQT

[3] = biological target: Ribosomal protein S6 kinase alpha-4 (Homo sapiens) (UniProt O75676); experiment: Selectivity interaction (ProQinase) EUB0000171b RPS6KA4
Sequence of Ribosomal protein S6 kinase alpha-4 (Homo sapiens) (O75676 whole entry, looked up): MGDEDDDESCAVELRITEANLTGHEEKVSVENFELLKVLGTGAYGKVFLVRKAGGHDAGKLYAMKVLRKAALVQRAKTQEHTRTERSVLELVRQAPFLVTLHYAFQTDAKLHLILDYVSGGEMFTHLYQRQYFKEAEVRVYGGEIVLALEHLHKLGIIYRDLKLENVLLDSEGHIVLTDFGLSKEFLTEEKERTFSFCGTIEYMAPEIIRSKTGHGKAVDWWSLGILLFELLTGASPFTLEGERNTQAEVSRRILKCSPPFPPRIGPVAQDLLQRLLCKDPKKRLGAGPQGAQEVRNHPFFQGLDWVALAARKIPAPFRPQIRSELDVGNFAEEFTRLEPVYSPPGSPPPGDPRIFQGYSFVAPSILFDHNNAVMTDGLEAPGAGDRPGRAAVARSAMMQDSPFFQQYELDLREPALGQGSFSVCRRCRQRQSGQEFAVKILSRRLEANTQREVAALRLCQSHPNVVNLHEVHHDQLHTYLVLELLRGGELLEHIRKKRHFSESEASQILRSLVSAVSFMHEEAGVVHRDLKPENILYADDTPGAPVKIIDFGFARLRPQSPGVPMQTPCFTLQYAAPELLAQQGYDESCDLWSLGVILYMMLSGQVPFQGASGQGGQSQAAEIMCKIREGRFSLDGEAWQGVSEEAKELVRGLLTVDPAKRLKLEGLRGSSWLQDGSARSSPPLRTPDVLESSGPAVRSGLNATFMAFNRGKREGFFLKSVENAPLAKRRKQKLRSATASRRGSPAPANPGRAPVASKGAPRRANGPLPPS

[4] = biological target: Cyclin-dependent kinase 17 (Homo sapiens) (UniProt Q00537); experiment: Selectivity interaction (ActivX KiNativ screen (kinase selectivity in THP-1 cell lysates)) EUB0000639a CDK17; assay type: subcellular; conditions: lysate, at 0.04 µM
Sequence of Cyclin-dependent kinase 17 (Homo sapiens) (Q00537 whole entry, looked up, canonical isoform): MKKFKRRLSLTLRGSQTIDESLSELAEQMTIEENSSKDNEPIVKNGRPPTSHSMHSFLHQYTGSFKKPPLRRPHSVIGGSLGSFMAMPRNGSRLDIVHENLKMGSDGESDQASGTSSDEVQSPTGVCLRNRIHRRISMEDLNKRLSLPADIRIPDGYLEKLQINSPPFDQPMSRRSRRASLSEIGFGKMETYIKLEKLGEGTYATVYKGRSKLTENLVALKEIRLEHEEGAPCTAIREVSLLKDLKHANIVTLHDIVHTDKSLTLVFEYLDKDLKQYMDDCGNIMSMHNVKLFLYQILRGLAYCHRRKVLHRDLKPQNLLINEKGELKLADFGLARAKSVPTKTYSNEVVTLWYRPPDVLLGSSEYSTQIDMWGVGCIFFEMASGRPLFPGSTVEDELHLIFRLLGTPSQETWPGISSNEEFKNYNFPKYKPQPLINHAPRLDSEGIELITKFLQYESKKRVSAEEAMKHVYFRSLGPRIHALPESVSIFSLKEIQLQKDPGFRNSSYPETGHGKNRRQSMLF

[5] = biological target: T2, Phosphatidylinositol 4,5-bisphosphate 3-kinase catalytic subunit delta isoform (Homo sapiens) (UniProt O00329); experiment: Selectivity interaction (KinomeScan (DiscoverX)) EUB0001049a PIK3CD; conditions: at 1 µM
T2 sequence (whole entry): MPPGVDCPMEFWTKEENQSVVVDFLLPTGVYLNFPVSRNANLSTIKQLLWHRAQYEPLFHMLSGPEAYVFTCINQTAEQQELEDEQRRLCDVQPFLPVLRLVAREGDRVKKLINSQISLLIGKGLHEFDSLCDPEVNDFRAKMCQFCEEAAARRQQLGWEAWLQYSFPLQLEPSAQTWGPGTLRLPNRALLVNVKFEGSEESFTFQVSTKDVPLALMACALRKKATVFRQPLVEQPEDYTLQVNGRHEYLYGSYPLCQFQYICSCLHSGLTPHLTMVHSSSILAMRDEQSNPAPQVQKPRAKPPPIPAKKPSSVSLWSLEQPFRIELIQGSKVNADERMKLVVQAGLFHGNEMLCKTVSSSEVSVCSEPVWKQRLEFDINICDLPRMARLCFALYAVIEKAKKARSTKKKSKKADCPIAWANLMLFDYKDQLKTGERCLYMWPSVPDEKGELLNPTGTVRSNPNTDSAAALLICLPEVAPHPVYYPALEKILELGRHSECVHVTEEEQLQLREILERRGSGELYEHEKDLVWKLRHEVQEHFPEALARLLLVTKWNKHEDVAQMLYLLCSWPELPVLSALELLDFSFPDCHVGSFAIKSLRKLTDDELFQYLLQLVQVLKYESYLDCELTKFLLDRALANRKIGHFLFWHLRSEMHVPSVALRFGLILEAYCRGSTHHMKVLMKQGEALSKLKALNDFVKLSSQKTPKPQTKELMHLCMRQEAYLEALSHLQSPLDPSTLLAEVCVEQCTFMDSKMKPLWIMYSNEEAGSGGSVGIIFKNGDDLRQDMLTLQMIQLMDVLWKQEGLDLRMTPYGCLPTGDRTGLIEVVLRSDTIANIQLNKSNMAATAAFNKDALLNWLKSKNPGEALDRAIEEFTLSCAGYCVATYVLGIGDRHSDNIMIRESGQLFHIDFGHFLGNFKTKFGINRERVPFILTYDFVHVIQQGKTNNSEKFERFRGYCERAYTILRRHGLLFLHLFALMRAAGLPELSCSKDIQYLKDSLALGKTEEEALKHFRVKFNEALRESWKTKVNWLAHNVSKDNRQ

[6] = test system: T3, Receptor-type tyrosine-protein kinase FLT3 (Homo sapiens), P36888 [R834Q]; experiment: (§1) Selectivity interaction (KinomeScan (DiscoverX)) EUB0000045b FLT3
T3 sequence (whole entry): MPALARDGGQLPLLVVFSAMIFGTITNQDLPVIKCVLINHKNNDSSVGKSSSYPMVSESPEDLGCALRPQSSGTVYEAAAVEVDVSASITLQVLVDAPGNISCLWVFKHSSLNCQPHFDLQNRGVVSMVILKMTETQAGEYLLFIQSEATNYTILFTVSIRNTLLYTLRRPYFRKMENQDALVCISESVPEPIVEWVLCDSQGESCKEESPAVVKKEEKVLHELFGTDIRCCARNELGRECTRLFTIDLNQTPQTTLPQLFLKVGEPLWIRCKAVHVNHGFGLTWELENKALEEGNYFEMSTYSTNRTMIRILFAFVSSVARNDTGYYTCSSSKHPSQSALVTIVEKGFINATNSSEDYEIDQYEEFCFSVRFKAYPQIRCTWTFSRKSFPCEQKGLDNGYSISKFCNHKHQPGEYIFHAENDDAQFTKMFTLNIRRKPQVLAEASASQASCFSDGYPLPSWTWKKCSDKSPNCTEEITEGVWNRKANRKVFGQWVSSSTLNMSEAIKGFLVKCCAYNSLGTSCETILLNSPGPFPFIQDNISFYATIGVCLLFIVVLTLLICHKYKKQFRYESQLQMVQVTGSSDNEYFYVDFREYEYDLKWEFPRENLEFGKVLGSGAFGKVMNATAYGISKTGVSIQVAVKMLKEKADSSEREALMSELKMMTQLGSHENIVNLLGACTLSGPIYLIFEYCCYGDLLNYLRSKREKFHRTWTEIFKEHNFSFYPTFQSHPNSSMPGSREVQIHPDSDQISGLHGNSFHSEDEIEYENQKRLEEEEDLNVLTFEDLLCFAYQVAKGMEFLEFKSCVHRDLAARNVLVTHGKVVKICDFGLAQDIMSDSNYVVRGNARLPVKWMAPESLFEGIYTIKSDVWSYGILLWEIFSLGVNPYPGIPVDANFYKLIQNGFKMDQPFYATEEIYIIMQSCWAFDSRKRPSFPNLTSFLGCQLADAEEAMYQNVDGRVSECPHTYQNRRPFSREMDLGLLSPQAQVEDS

[7] = test system: Receptor-type tyrosine-protein kinase FLT3 (Homo sapiens), P36888 [UNDEFINED MUTATION]; experiment: as §1
[8] = biological target: Receptor-type tyrosine-protein kinase FLT3 (Homo sapiens) (UniProt P36888); experiment: as §1

SMILES: COc1cc(N(C)c2ccnc3ccc(C(F)(F)F)cc23)cc(OC)c1OC
- % binding [1]: 63%

SMILES: Cc1ccc(-c2ccc3c(ccc4sc5c(c43)NC[C@@H](C)NC5=O)n2)cn1
- % of inhibition [2]: 9%

SMILES: C=CC(=O)Nc1cccc(C(=O)Nc2ccc(Nc3cc(-c4[nH]c(SC)nc4C)ccn3)cc2)c1
- % of control ([3]; at 1 µM): 97%
- % of control ([3]; at 5 µM): 94%

SMILES: CC[C@@H]1[C@H](F)C(=O)N[C@@H]1COc1nccc2cc(C(N)=O)c(OC)cc12 [ZIMLOVISERTIB]
- % of inhibition [4]: 1.7%

SMILES: COc1cc(Nc2nc(C)cc(-c3cnn4nc(OC)ccc34)n2)cc(C(F)(F)F)c1
- % of control [5]: 88%

SMILES: C=CC(=O)Nc1cc(-n2c(=O)ccc3cnc4ccc(-c5ccc(NS(C)(=O)=O)cc5)cc4c32)ccc1C
- % of control ([6]; at 1 µM): 100%
- % of control ([6]; at 10 µM): 100%
- % of control ([7]; at 1 µM): 99%
- % of control ([7]; at 10 µM): 100%
- % of control ([8]; at 1 µM): 80%
- % of control ([8]; at 10 µM): 81%
